Experimental data taken from patent publication US11919855B2, “Substituted pyrrolidones and piperidones as small molecule inhibitors of EZH2 and EED protein binding” (Northwestern University, priority 2021, dated 2024).

target: EED-EZH2 (Homo sapiens (Human), UniProt O75530); assay: EED-EZH2 AlphaScreen assay; format: binding; conditions: 8.7 nM EZH2, 5.0 nM EED, read-out: IC50 Potency Code
Experimental: Biological activity of exemplary substituted pyrrolidones and piperidones was determined by the EED-EZH2 AlphaScreen assay according the following methodology.
EZH2 (non-complexed), His-GST-tags
Anti-FLAG AlphaLISA Acceptor Beads
AlphaScreen GSH Donor Beads
Assay Protocol (Calculated for 384 Wells or 1 Plate)
• 1. Thaw EED and EZH2 proteins on ice. • 2. Prepare 1× HMT Buffer 2: • 1.5 mL of 4× HMT Buffer 2+4.5 mL ddH2O. • 3. Prepare 1.2× EED-EZH2 solution in 1× HMT Buffer 2: 3.4 mL total • 2.1 uL of EED (0.41 mg/mL, 8.04 uM, 1:1608 dilution)+14 uL of EZH2 (0.24 mg/mL, 2.11 uM, 1:243 dilution)+3.384 mL of 1× HMT Buffer 2 • 4. Prepare 1.2× EZH2 solution in 1× HMT Buffer 2 (positive control): 0.168 mL total • 0.69 uL of EZH2 (0.24 mg/mL, 2.11 uM, 1:243 dilution)+167 uL of 1× HMT Buffer 2 • 5. Add 10 μL of 1.2× EED-EZH2 or 1.2× EZH2 solution to each well. • 6. Add compounds in DMSO via Echo transfer and 30 nL DMSO for control wells. • 7. Centrifuge at 15,000 rpm for 10 seconds and allow to incubate at rt for 1 hour. Step Two • 1. Prepare 6× Anti-FLAG and GSH Donor beads in 1× HMT Buffer 2 in the dark: 1 mL total • 10 uL of Anti-FLAG (1:100 dilution)+5 uL of GSH Donor (1:200 dilution)+985 uL of 1× HMT Buffer 2 • 2. Add 2 μL of bead solution to each well. • 3. Centrifuge at 15,000 rpm for 10 seconds and allow to incubate at rt for 1 hour in the dark. • 4. Read plate. Final Concentrations: • 12 μL volume per well • 8.7 nM EZH2 • 5.0 nM EED • DMSO<0.5% Calculations: • 1. Average EZH2 only wells (positive control) and subtract from all other wells. • 2. Average EED-EZH2 only wells (negative control) to indicate 100% signal or 0% inhibition. • 3. Normalize each well to the average 100% signal from step 2. • 4. Report either as normalized % inhibition or normalized % signal. • Use GraphPad to Calculate IC50.

Chain of EED-EZH2 (O75530 2-441): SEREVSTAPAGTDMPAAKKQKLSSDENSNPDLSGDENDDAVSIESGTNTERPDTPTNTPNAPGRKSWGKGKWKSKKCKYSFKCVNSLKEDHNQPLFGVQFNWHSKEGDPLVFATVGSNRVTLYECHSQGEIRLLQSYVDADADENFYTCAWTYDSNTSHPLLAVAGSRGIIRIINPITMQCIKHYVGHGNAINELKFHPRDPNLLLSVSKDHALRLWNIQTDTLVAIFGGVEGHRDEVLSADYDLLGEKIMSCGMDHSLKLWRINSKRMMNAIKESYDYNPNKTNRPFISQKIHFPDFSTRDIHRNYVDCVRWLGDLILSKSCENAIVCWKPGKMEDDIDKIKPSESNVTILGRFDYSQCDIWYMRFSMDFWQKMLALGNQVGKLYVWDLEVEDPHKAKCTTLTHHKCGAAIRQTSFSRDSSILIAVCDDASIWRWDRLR

Row | SMILES | IC50
1 | Cc1ccc(O)c(C(=O)NC2CC(=O)N(Cc3ccccc3C(F)(F)F)C2)c1 (stereo not drawn) [NUCC-0163358] | 1 to 10 µM
2 | Cc1ccc(O)c(C(=O)NC2CC(=O)N(Cc3ccccc3[N+](=O)[O-])C2)c1 (stereo not drawn) [NUCC-0202653] | 1 to 10 µM
3 | COc1ccc(C)cc1C(=O)NC1CC(=O)N(Cc2ccccc2[N+](=O)[O-])C1 (stereo not drawn) [NUCC-0202654] | > 50 µM
4 | COc1cccc(CC(=O)NC2CC(=O)N(Cc3ccccc3[N+](=O)[O-])C2)c1 (stereo not drawn) [NUCC-0202655] | > 50 µM
5 | Cc1c(C(=O)NC2CC(=O)N(Cc3ccccc3[N+](=O)[O-])C2)cccc1[N+](=O)[O-] (stereo not drawn) [NUCC-0202656] | > 50 µM
6 | O=C(NC1CC(=O)N(Cc2ccccc2[N+](=O)[O-])C1)c1cccnc1 (stereo not drawn) [NUCC-0202657] | > 50 µM
7 | O=C(O)c1ccccc1C(=O)NC1CC(=O)N(Cc2ccccc2[N+](=O)[O-])C1 (stereo not drawn) [NUCC-0202658] | > 50 µM
8 | N#Cc1cccc(C(=O)NC2CC(=O)N(Cc3ccccc3[N+](=O)[O-])C2)c1 (stereo not drawn) [NUCC-0202659] | > 50 µM
9 | COc1ccc(C)cc1C(=O)NC1CC(=O)N(Cc2ccccc2C(F)(F)F)C1 (stereo not drawn) [NUCC-0202660] | 10 to 50 µM
10 | COc1cccc(CC(=O)NC2CC(=O)N(Cc3ccccc3C(F)(F)F)C2)c1 (stereo not drawn) [NUCC-0202661] | > 50 µM
11 | Cc1c(C(=O)NC2CC(=O)N(Cc3ccccc3C(F)(F)F)C2)cccc1[N+](=O)[O-] (stereo not drawn) [NUCC-0202662] | > 50 µM
12 | O=C(NC1CC(=O)N(Cc2ccccc2C(F)(F)F)C1)c1cccnc1 (stereo not drawn) [NUCC-0202663] | > 50 µM
13 | O=C(O)c1ccccc1C(=O)NC1CC(=O)N(Cc2ccccc2C(F)(F)F)C1 (stereo not drawn) [NUCC-0202666] | > 50 µM
14 | O=C(NC1CC(=O)N(Cc2ccccc2C(F)(F)F)C1)c1cccc(-c2ccccc2)c1 (stereo not drawn) [NUCC-0202667] | > 50 µM
15 | Cc1cccc(C(=O)NC2CC(=O)N(Cc3ccccc3C(F)(F)F)C2)c1 (stereo not drawn) [NUCC-0202668] | > 50 µM
16 | O=C(NC1CC(=O)N(Cc2ccccc2C(F)(F)F)C1)c1ccccc1O (stereo not drawn) [NUCC-0202669] | > 50 µM
17 | O=C(NC1CC(=O)N(Cc2ccccc2C(F)(F)F)C1)c1ccc(Cl)c(Cl)c1 (stereo not drawn) [NUCC-0202670] | > 50 µM
18 | O=C(NC1CC(=O)N(Cc2ccccc2C(F)(F)F)C1)c1ccc2cc[nH]c2c1 (stereo not drawn) [NUCC-0202671] | > 50 µM
19 | Cc1ccc(O)c(C(=O)NC2CC(=O)N(Cc3ccc(Cl)c(Cl)c3)C2)c1 (stereo not drawn) [NUCC-0202672] | 10 to 50 µM
20 | COc1ccc(C)cc1C(=O)NC1CC(=O)N(Cc2ccc(Cl)c(Cl)c2)C1 (stereo not drawn) [NUCC-0202673] | > 50 µM
21 | O=C(NC1CC(=O)N(Cc2ccc(Cl)c(Cl)c2)C1)c1ccccc1O (stereo not drawn) [NUCC-0202674] | > 50 µM
22 | O=C(NC1CC(=O)N(Cc2ccc(Cl)c(Cl)c2)C1)c1cccnc1 (stereo not drawn) [NUCC-0202675] | > 50 µM
23 | O=C(O)c1ccccc1C(=O)NC1CC(=O)N(Cc2ccc(Cl)c(Cl)c2)C1 (stereo not drawn) [NUCC-0202676] | > 50 µM

Row | SMILES | IC50
24 | O=C(NC1CC(=O)N(Cc2ccc(Cl)c(Cl)c2)C1)c1cccc(-c2ccccc2)c1 (stereo not drawn) [NUCC-0202677] | > 50 µM
25 | Cc1cccc(C(=O)NC2CC(=O)N(Cc3ccc(Cl)c(Cl)c3)C2)c1 (stereo not drawn) [NUCC-0202678] | > 50 µM
26 | Cc1ccc(O)c(C(=O)N(C)C2CC(=O)N(Cc3ccccc3C(F)(F)F)C2)c1 (stereo not drawn) [NUCC-0202747] | > 50 µM
27 | O=C(NC1CC(=O)N(Cc2ccccc2C(F)(F)F)C1)c1cccc2cc[nH]c12 (stereo not drawn) [NUCC-0202749, N-(5-oxo-1-(2-(trifluoromethyl)benzyl)pyrrolidin-3-yl)-1H-indole-7-carboxamide] | > 50 µM
28 | Cc1ccc(C(=O)NC2CC(=O)N(Cc3ccccc3C(F)(F)F)C2)c(O)c1 (stereo not drawn) [NUCC-0202750] | > 50 µM
29 | Cc1cccc(C(=O)NC2CC(=O)N(Cc3ccccc3C(F)(F)F)C2)c1O (stereo not drawn) [NUCC-0202751] | > 50 µM
30 | CC(C)(C)c1ccc(O)c(C(=O)NC2CC(=O)N(Cc3ccccc3C(F)(F)F)C2)c1 (stereo not drawn) [NUCC-0202752] | > 50 µM
31 | CCc1ccc(O)c(C(=O)NC2CC(=O)N(Cc3ccccc3C(F)(F)F)C2)c1 (stereo not drawn) [NUCC-0202753] | > 50 µM
32 | Cc1ccc(O)cc1C(=O)NC1CC(=O)N(Cc2ccccc2C(F)(F)F)C1 (stereo not drawn) [NUCC-0202754] | > 50 µM
33 | O=C(NC1CC(=O)N(Cc2ccccc2C(F)(F)F)C1)c1cnon1 (stereo not drawn) [NUCC-0202755] | > 50 µM
34 | O=C(Cc1cc2ccccc2[nH]1)NC1CC(=O)N(Cc2ccccc2C(F)(F)F)C1 (stereo not drawn) [NUCC-0202756] | > 50 µM
35 | O=C(NC1CC(=O)N(Cc2ccccc2C(F)(F)F)C1)c1ccnc(Cl)n1 (stereo not drawn) [NUCC-0202757] | > 50 µM
36 | O=C(NC1CC(=O)N(Cc2ccccc2C(F)(F)F)C1)c1ccc2ccccc2n1 (stereo not drawn) [NUCC-0202758] | > 50 µM
37 | O=C(NC1CC(=O)N(Cc2ccccc2C(F)(F)F)C1)c1cscn1 (stereo not drawn) [NUCC-0202759] | > 50 µM
38 | O=C(NC1CC(=O)N(Cc2ccccc2C(F)(F)F)C1)c1coc2ccccc12 (stereo not drawn) [NUCC-0202760] | > 50 µM
39 | O=C(NC1CC(=O)N(Cc2ccccc2C(F)(F)F)C1)c1ccc2ccccc2c1O (stereo not drawn) [NUCC-0202761] | 10 to 50 µM
40 | O=C(NC1CC(=O)N(Cc2ccccc2C(F)(F)F)C1)c1ccc(Cl)nc1Cl (stereo not drawn) [NUCC-0202762] | > 50 µM
41 | O=C(NC1CC(=O)N(Cc2ccccc2C(F)(F)F)C1)c1ccccc1F (stereo not drawn) [NUCC-0202763] | > 50 µM
42 | Cn1nccc1C(=O)NC1CC(=O)N(Cc2ccccc2C(F)(F)F)C1 (stereo not drawn) [NUCC-0202764] | > 50 µM
43 | O=C(NC1CC(=O)N(Cc2ccccc2C(F)(F)F)C1)c1ccc(Br)c(O)c1 (stereo not drawn) [NUCC-0202765] | > 50 µM
44 | O=C1CC(Nc2n[nH]c3ccccc23)CN1Cc1ccccc1C(F)(F)F (stereo not drawn) [NUCC-0202766] | > 50 µM
45 | O=C(NC1CC(=O)N(Cc2ccccc2C(F)(F)F)C1)c1cc(Cl)nc2ccccc12 (stereo not drawn) [NUCC-0202792] | > 50 µM
46 | Cc1ccc(N)c(C(=O)NC2CC(=O)N(Cc3ccccc3C(F)(F)F)C2)c1 (stereo not drawn) [NUCC-0202793] | > 50 µM

Row | SMILES | IC50
47 | Cc1ccc(O)c(C(=O)NC2CC(=O)N(Cc3ccccc3C(F)(F)F)C2)c1 (stereo not drawn) [NUCC-0202826] | > 50 µM
48 | Cc1cccc(O)c1C(=O)NC1CC(=O)N(Cc2ccccc2C(F)(F)F)C1 (stereo not drawn) [NUCC-0202827] | > 50 µM
49 | Cc1c[nH]c(=O)c(C(=O)NC2CC(=O)N(Cc3ccccc3C(F)(F)F)C2)c1 (stereo not drawn) [NUCC-0202828] | > 50 µM
50 | O=C(NC1CC(=O)N(Cc2ccccc2C(F)(F)F)C1)c1cc2ccccc2cc1O (stereo not drawn) [NUCC-0202830] | 10 to 50 µM
51 | COc1ccc(O)c(C(=O)NC2CC(=O)N(Cc3ccccc3C(F)(F)F)C2)c1 (stereo not drawn) [NUCC-0202831] | 10 to 50 µM
52 | O=C(NC1CC(=O)N(Cc2ccccc2C(F)(F)F)C1)c1cc(F)ccc1O (stereo not drawn) [NUCC-0202832] | 1 to 10 µM
53 | O=C(NC1CC(=O)N(Cc2ccccc2C(F)(F)F)C1)c1cc(Cl)ccc1O (stereo not drawn) [NUCC-0202833] | 1 to 10 µM
54 | O=C(NC1CC(=O)N(Cc2ccccc2C(F)(F)F)C1)c1cc(Br)ccc1O (stereo not drawn) [NUCC-0202834] | 1 to 10 µM
55 | Cc1ccc(O)c(S(=O)(=O)NC2CC(=O)N(Cc3ccccc3C(F)(F)F)C2)c1 (stereo not drawn) [NUCC-0202835] | > 50 µM
56 | CC(C)(CO)C(=O)NC1CC(=O)N(Cc2ccccc2C(F)(F)F)C1 (stereo not drawn) [NUCC-0202851] | > 50 µM
57 | O=C(NC1CC(=O)N(Cc2ccccc2C(F)(F)F)C1)c1cc(I)ccc1O (stereo not drawn) [NUCC-0202852] | 10 to 50 µM
58 | O=C(NC1CC(=O)N(Cc2ccccc2C(F)(F)F)C1)c1cc(C(F)(F)F)ccc1O (stereo not drawn) [NUCC-0202965] | 1 to 10 µM
59 | Cc1ccc(O)c(C(=O)NC2CC(=O)N(Cc3ccccc3C(=O)O)C2)c1 (stereo not drawn) [NUCC-0202966] | 1 to 10 µM
60 | COC(=O)c1ccccc1CN1CC(NC(=O)c2cc(C)ccc2O)CC1=O (stereo not drawn) [NUCC-0202967] | 1 to 10 µM
61 | Cc1ccc(O)c(C(=O)NC2CC(=O)N(Cc3ccccc3C(F)(F)F)C2)n1 (stereo not drawn) [NUCC-0202968] | > 50 µM
62 | Cc1ccc(O)c(C(=O)Nc2ccc(=O)n(Cc3ccccc3C(F)(F)F)c2)c1 [NUCC-0202969] | > 50 µM
63 | CC(=O)N1CCCC(CN2CC(NC(=O)c3cc(C)ccc3O)CC2=O)C1 (stereo not drawn) [NUCC-0202970] | 10 to 50 µM
64 | Cc1ccc(O)c(C(=O)NC2CCC(=O)N(Cc3ccccc3C(F)(F)F)C2)c1 (stereo not drawn) [NUCC-0202971] | 1 to 10 µM
65 | COc1ccc(CN2C[C@@H](NC(=O)c3cc(C)ccc3O)CC2=O)c(OC)c1 [NUCC-0202972] | 10 to 50 µM
66 | Cc1ccc(O)c(C(=O)N[C@H]2CC(=O)N(Cc3ccccc3Cl)C2)c1 [NUCC-0202973] | 10 to 50 µM
67 | Cc1ccc(O)c(C(=O)N[C@H]2CC(=O)N(Cc3ccc(C(F)(F)F)cc3)C2)c1 [NUCC-0202974] | > 50 µM
68 | Cc1ccc(O)c(C(=O)N[C@H]2CC(=O)N(Cc3ccc(Cl)c(Cl)c3)C2)c1 [NUCC-0202975] | 10 to 50 µM
69 | Cc1ccc(O)c(C(=O)N[C@H]2CC(=O)N(C3CCc4ccccc43)C2)c1 (stereo partly drawn) [NUCC-0202976] | > 50 µM
